Earlier results in PubChem BioAssay AID1259409 (Chemical Carcinogenesis Research Information System (CCRIS), 2018).

Tested on: rodent chemically induced tumor inhibition, incidence and multiplicity
Assay: CCRIS tumor inhibitor studies
Conditions: for outcome: Carcinogen: NONE, Strain/Sex: APC/MIN/MALE

In the case of `NCCCC(N)(C(=O)O)C(F)F` (centres undefined), the “tumour outcome (control, treated, inhibition, significance)” value (Carcinogen: N-METHYL-N-NITROSOUREA, 684-93-5, Dose [Inhibitor]: 0.5 ML OF 2% AGENT IN 0.9% SALINE SOLUTION TWICE IN WK 1 THEN ONCE 2 HR POST CARCINOGEN TREATMENT THEN TWICE IN WK 2 (ST, Route [Inhibitor]: INTRAVESICAL, Species: RAT, Strain/Sex: F344/MALE, Target Tissue: Type of Lesion: BLADDER: CARCINOMA, Dose [Carcinogen]: 0.25 MG IN 0.5 ML OF 0.9% SALINE SOLUTION ONCE, Promoter: URINE) is listed as 31/36 (86%), 27/38 (71%), 17%, not calculated, the “tumour outcome (control, treated, inhibition, significance)” value (Carcinogen: N-METHYL-N-NITROSOUREA, 684-93-5, Dose [Inhibitor]: 2% IN URINE 2/WK FOR 30 WK BEGINNING 1 WK POST CARCINOGEN DOSE (STUDY DURATION: 35 WK), Route [Inhibitor]: INTRAVESICAL, Species: RAT, Strain/Sex: F344/MALE, Target Tissue: Type of Lesion: BLADDER: CARCINOMA, Dose [Carcinogen]: 0.25 MG IN 0.5 ML OF 0.9% SALINE SOLUTION ONCE, Promoter: URINE) is listed as 25/36 (69%), 13/35 (37%), 46%, p<0.025 and the “tumour outcome (control, treated, inhibition, significance)” value (Carcinogen: N-METHYL-N-NITROSOUREA, 684-93-5, Dose [Inhibitor]: 2% IN URINE 2/WK FOR 41 WK BEGINNING 1 WK POST CARCINOGEN DOSE (STUDY DURATION: 50 WK), Route [Inhibitor]: INTRAVESICAL, Species: RAT, Strain/Sex: F344/MALE, Target Tissue: Type of Lesion: BLADDER: CARCINOMA, Dose [Carcinogen]: 0.25 MG IN 0.5 ML OF 0.9% SALINE SOLUTION ONCE, Promoter: URINE) is listed as 31/36 (86%), 30/38 (79%), 8%, not calculated. For the same compound, the outcome (Dose [Inhibitor]: 0.5% IN DRINKING WATER FOR 2 MONTHS (STUDY DURATION: 2 MONTHS), Route [Inhibitor]: ORAL, Species: MOUSE, Target Tissue: Type of Lesion: DISTAL SMALL INTESTINE: TUMOR, Promoter: NONE) was 10.38, 3.67, 65%, p<0.001, the outcome (Dose [Inhibitor]: 0.5% IN DRINKING WATER FOR 2 MONTHS (STUDY DURATION: 2 MONTHS), Route [Inhibitor]: ORAL, Species: MOUSE, Target Tissue: Type of Lesion: MIDDLE SMALL INTESTINE: TUMOR, Promoter: NONE) was 23.75, 19.80, 17%, not significant and the outcome (Dose [Inhibitor]: 0.5% IN DRINKING WATER FOR 2 MONTHS (STUDY DURATION: 2 MONTHS), Route [Inhibitor]: ORAL, Species: MOUSE, Target Tissue: Type of Lesion: PROXIMAL SMALL INTESTINE: TUMOR, Promoter: NONE) was 7.63, 6.40, 16%, not significant. For the same compound, the outcome (Dose [Inhibitor]: 1.0% IN DRINKING WATER FOR 2 MONTHS (STUDY DURATION: 2 MONTHS), Route [Inhibitor]: ORAL, Species: MOUSE, Target Tissue: Type of Lesion: DISTAL SMALL INTESTINE: TUMOR, Promoter: NONE) was 10.38, 1.73, 83%, p<0.001, the outcome (Dose [Inhibitor]: 1.0% IN DRINKING WATER FOR 2 MONTHS (STUDY DURATION: 2 MONTHS), Route [Inhibitor]: ORAL, Species: MOUSE, Target Tissue: Type of Lesion: MIDDLE SMALL INTESTINE: TUMOR, Promoter: NONE) was 23.75, 13.80, 42%,p<0.01 and the “tumour outcome (control, treated, inhibition, significance)” value (Carcinogen: UV-A (20%), UV-B (80%) (WESTINGHOUSE FS320 SUNLAMP IN 280-400 NM), Dose [Inhibitor]: 0, 0.4% IN DRINKING WATER FOR 8 WK BEGINNING 22 WK POST CARCINOGEN FIRST DOSE (STUDY DURATION: 30 WK), Route [Inhibitor]: ORAL, Species: MOUSE, Strain/Sex: SKH:HR-1-HBR/FEMALE, Target Tissue: Type of Lesion: SKIN: TUMOR, Dose [Carcinogen]: 90 MJ/CM2 3 TIMES/WK, DOSE INCREASED BY 10% UNTIL REACHED 175 MJ/CM^2, BEGINNING 2 D POST AGENT DOSE, TREATMENT WS STOPP, Promoter: NONE) was “?/? (100%), ?/? (95%), 5%, data presented graphically, not calculated”. The “tumour outcome (control, treated, inhibition, significance)” value (Carcinogen: UV-A (20%), UV-B (80%) (WESTINGHOUSE FS320 SUNLAMP IN 280-400 NM), Dose [Inhibitor]: 0, 0.4% IN DRINKING WATER FOR 18 WK BEGINNING 12 WK POST CARCINOGEN FIRST DOSE (STUDY DURATION: 30 WK), Route [Inhibitor]: ORAL, Species: MOUSE, Strain/Sex: SKH:HR-1-HBR/FEMALE, Target Tissue: Type of Lesion: SKIN: TUMOR, Dose [Carcinogen]: 90 MJ/CM2 3 TIMES/WK, DOSE INCREASED BY 10% UNTIL REACHED 175 MJ/CM^2, BEGINNING 2 D POST AGENT DOSE, TREATMENT WS STOPP, Promoter: NONE) was “?/? (100%), ?/? (100%), 0%, data presented graphically, not calculated”, the “tumour outcome (control, treated, inhibition, significance)” value (Carcinogen: UV-A (20%), UV-B (80%) (WESTINGHOUSE FS320 SUNLAMP IN 280-400 NM), Dose [Inhibitor]: 0, 0.4% IN DRINKING WATER FOR DURATION OF STUDY (STUDY DURATION: 30 WK), Route [Inhibitor]: ORAL, Species: MOUSE, Strain/Sex: SKH:HR-1-HBR/FEMALE, Target Tissue: Type of Lesion: SKIN: TUMOR, Dose [Carcinogen]: 90 MJ/CM2 3 TIMES/WK, DOSE INCREASED BY 10% UNTIL REACHED 175 MJ/CM^2, BEGINNING 2 D POST AGENT DOSE, TREATMENT WS STOPP, Promoter: NONE) was “?/? (100%), ?/? (73%), 27%, data presented graphically, not calculated” and the “tumour outcome (control, treated, inhibition, significance)” value (Carcinogen: UVB IRRADIATION, Dose [Inhibitor]: 0, 1% IN DRINKING WATER FOR DURATION OF STUDY BEGINNING 3 WK PRIOR TO CARCINOGEN TREATMENT (STUDY DURATION: 36 WK), Route [Inhibitor]: ORAL, Species: MOUSE, Strain/Sex: BALB/FEMALE, Target Tissue: Type of Lesion: SKIN: TUMOR, Dose [Carcinogen]: 1273 KJM2 TOTAL DOSE ADMINISTERED IN 30 MIN TREATMENTS 5 D/WK, Promoter: NONE USED) was 38%, 9%, 76%, p=0.025. The “tumour outcome (control, treated, inhibition, significance)” value (Dose [Inhibitor]: 0, 2% IN DRINKING WATER FOR 3 WK THEN REDUCED TO 1% FOR DURATION OF STUDY (STUDY DURATION: 9 MO), Route [Inhibitor]: ORAL, Species: RAT, Strain/Sex: F344/MALE, Target Tissue: Type of Lesion: LIVER: HEPATOCELLULAR CARCINOMA, Dose [Carcinogen]: 25 UG IN 0.2 ML DMSO 5 D/WK FOR 4 WK, Promoter: NONE USED) was 40%, 16%, 60%, p<0.01 and the “tumour outcome (control, treated, inhibition, significance)” value (Dose [Inhibitor]: 0, 2% IN DRINKING WATER FOR 3 WK THEN REDUCED TO 1% FOR DURATION OF STUDY ADMINISTERED TO RATS MAINTAINED ON CHOLINE-DEF, Route [Inhibitor]: ORAL, Species: RAT, Strain/Sex: F344/MALE, Target Tissue: Type of Lesion: LIVER: HEPATOCELLULAR CARCINOMA, Dose [Carcinogen]: 25 UG IN 0.2 ML DMSO 5 D/WK FOR 4 WK, Promoter: NONE USED) was 71%, 28%, 61%, not calculated.
